Laboratory results taken from US20230098332A1, “HETEROCYCLIC DERIVATIVES AS TRMP8 ANTAGONISTS” (Givaudan SA, priority 2020, published 2023).
Counter-ions that a name gives are not always drawn.

What was measured:
[1] = test system: trained group of panelists; test: Sensory studies in aqueous solution (trained panelists, cooling in the mouth); format: in vivo, human; settings: 40 ppm in aqueous solution, 20 mL swilled in the mouth for 60 seconds; for Cooling after 1 hour / Max. cooling: averaged panel score 0-10
Method: The compounds as listed below in Table 2 were dissolved at a concentration of 1 wt-% in propylene glycol. These solutions were then dispensed in appropriate quantities into deionized water containing 0.5 wt-% Poloxamer 407 (which is a hydrophilic non-ionic surfactant, e.g., commercially available from SigmaAldrich) and 0.25 wt-% Cremaphor® RH40 (obtained from BASF) as solubilizer, to obtain the desired final concentration of 40 ppm (parts per million) of the respective compound.
A trained group of panelists evaluated the aqueous solutions containing test compound by swilling 20 mL of the solution in the mouth for 60 seconds, followed by spitting, without rinsing the mouth afterwards for the duration of the evaluation. Panelists evaluated and recorded the cooling performance as well as other sensorial and organoleptic attributes at different timepoints over a period of two hours. Cooling performance was rated on a scale from 0 to 10 with 0 being no effect and 10 being freezing. Scores were averaged for all panelists and the cooling intensity qualified as “N” for “none” (score of 0), “L” for “low” (score above 0, up to 1), “M” for “medium” (score above 1, up to 4), “S” for “strong” (score above 4, up to 8) and “E” for “extreme” (score above 8), which are provided in Table 2.

[2] = test system: trained group of panelists; test: Sensory studies in model dentifrice (trained panelists, cooling in the mouth); format: in vivo, human; settings: 100 ppm in model unflavored dentifrice, brushing with 1 g for 60 seconds; for Cooling after 1 hour / Max. cooling: averaged panel score 0-10
Method: The compounds listed in Table 3 were dissolved at a concentration of 1 wt-% in propylene glycol. These solutions were then dispersed in appropriate quantities to obtain the desired final concentration of 100 ppm (parts per million) of the test compound into a model, unflavored dentifrice, the formula of which is given below (ingredients obtained from the suppliers respectively indicated in parenthesis).
A trained group of panelists evaluated the dentifrice containing a compound of formula (I), by brushing their teeth with 1 g of the dentifrice using a toothbrush for 60 seconds, followed by spitting, without rinsing the mouth afterwards for the duration of the evaluation. Panelists evaluated and recorded the cooling performance as well as other sensorial and organoleptic attributes at different timepoints over a period of two hours. Cooling performance was rated on a scale from 0 to 10 with 0 being no effect and 10 being freezing. Scores were averaged for all panelists and the cooling intensity qualified as “N” for “none” (score of 0), “L” for “low” (score above 0, up to 1), “M” for “medium” (score above 1, up to 4), “S” for “strong” (score above 4, up to 8) and “E” for “extreme” (score above 8), which are summarized below in Table 3.

hTRPM8 = biological target: T1, hTRPM8 (Homo sapiens, UniProt Q7Z2W7); test: Assay on TRPM8 modulators: calcium imaging (Fluo-4, Flexstation) in HEK293 cell line stably expressing hTRPM8; format: cell-based; settings: TRPM8 agonist activity, calcium influx, HEK293 stably expressing hTRPM8, sigmoidal dose-response fit
T1 construct: expressed in transfected cells
Method: A HEK293 cell line stably expressing hTRPM8 was generated according to Klein et al., (Chem. Senses 36: 649-658, 2011) and receptor activation was monitored by calcium imaging in a Flexstation. For Ca-imaging assays of TRPM8 channel activation, cells were seeded on day 0 at a density of 12000 cells per well in Dulbecco's modified Eagle medium (DMEM) containing 9% foetal bovine serum in black, clear bottom 96-well plates that had been coated with 0.001% polyethyleneimine (molecular weight=60 000, Acros Organics). On day 2, agonists were evaluated via calcium imaging using Fluo-4. Briefly, growth medium was discarded, and the cells were incubated in the dark for 1 h at 37° C. in 50 μL loading buffer consisting of 2.7 μM Fluo-4 AM (Invitrogen) and […] probenecid (Sigma-Aldrich) in DMEM (without serum). After incubation, the plates were washed five times with 100 μL of assay buffer (in mM: 130 NaCl, 5 KCl, 10 HEPES, 2 CaCl2, and 10 glucose, pH7.4.) and further incubated in the dark at room temperature for 30 min. The cells were then washed five times with 100 μL assay buffer and then calcium influx to serial dilutions of inventive compounds were measured in a Flexstation 3 (Molecular Devices). Receptor activation was initiated following addition of 20 μl of a 10-fold concentrated ligand stock solution, which is also prepared in assay buffer. Fluorescence was continuously monitored for 15 seconds prior to ligand addition and for 105 seconds after ligand addition, for a total of 120 seconds. Maximal receptor activation in relation to solvent control and relative to 31.6 μM menthol is determined. Data from serial dilutions were processed with a KNIME workflow to fit a sigmoidal dose-response curve and to extrapolate EC50 values.

T1 sequence (Q7Z2W7 whole entry): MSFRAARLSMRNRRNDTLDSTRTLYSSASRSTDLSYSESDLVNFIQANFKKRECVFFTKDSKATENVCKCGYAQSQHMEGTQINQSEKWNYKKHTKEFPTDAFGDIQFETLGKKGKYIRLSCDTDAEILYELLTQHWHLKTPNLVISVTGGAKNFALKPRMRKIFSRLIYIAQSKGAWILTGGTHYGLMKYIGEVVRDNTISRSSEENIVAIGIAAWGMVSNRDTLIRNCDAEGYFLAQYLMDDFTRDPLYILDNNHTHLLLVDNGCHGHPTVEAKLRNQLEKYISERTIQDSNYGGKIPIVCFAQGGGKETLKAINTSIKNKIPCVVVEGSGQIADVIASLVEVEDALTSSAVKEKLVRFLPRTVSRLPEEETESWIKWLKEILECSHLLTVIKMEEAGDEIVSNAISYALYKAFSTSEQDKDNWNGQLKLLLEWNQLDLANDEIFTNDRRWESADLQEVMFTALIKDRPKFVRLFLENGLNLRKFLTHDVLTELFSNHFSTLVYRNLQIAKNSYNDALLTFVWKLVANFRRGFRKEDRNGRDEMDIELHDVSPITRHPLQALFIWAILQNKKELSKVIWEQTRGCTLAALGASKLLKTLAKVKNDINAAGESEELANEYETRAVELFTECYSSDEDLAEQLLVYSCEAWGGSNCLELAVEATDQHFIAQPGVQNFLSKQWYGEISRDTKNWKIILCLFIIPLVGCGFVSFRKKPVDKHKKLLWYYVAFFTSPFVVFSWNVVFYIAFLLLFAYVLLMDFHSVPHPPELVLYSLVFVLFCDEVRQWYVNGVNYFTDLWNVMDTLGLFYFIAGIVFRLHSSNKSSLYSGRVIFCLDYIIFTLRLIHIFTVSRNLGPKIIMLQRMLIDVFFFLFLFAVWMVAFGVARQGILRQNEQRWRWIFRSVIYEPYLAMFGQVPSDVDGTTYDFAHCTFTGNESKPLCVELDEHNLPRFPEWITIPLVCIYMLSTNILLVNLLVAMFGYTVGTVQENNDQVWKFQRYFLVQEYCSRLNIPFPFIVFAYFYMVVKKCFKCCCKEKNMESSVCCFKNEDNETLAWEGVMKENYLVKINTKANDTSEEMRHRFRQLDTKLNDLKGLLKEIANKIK

EC50 (hTRPM8) [nM]	SMILES	Time of max. cooling [1] [min]	Cooling after 1 hour [1]	Max. cooling [1]	also measured
	Cc1cc(C)c(OCCN2CCN(C)CC2)c(Cc2ccccc2)c1.Cl.Cl [compound 71, 1-(2-(2-benzyl-4,6-dimethylphenoxy)ethyl)-4-methylpiperazine dihydrochloride]	20	M (“M” for “medium” (score above 1, up to 4))	S (“S” for “strong” (score above 4, up to 8))	Time of max. cooling [2]: 10 min; Cooling after 1 hour [2]: L (“L” for “low” (score above 0, up to 1)); Max. cooling [2]: M (“M” for “medium” (score above 1, up to 4))
300 to 1000	Cc1ccc(OCCN2CCN(C)CC2)c(Cc2ccccc2)c1 [compound 77, 1-(2-(2-benzyl-4-methylphenoxy)ethyl)-4-methylpiperazine]	10	M (“M” for “medium” (score above 1, up to 4))	M (“M” for “medium” (score above 1, up to 4))	
	Cc1ccc(OCCN2CCN(C)CC2)c(Cc2ccccc2)c1.Cl [compound 85, 1-(2-(2-benzyl-4-methylphenoxy)ethyl)-4-methylpiperazine hydrochloride]	20	M (“M” for “medium” (score above 1, up to 4))	S (“S” for “strong” (score above 4, up to 8))	Time of max. cooling [2]: 20 min; Cooling after 1 hour [2]: L (“L” for “low” (score above 0, up to 1)); Max. cooling [2]: L (“L” for “low” (score above 0, up to 1))
300 to 1000	Cc1ccc(OC(C)CN2CCN(C)CC2)c(Cc2ccccc2)c1 (stereo not drawn) [compound 90, 1-(2-(2-benzyl-4-methylphenoxy)propyl)-4-methylpiperazine]	10	M (“M” for “medium” (score above 1, up to 4))	M (“M” for “medium” (score above 1, up to 4))	
300 to 1000	Cc1ccc(CCCN2CCN(C)CC2)c(Cc2ccccc2)c1 [compound 100, 1-(3-(2-benzyl-4-methylphenyl)propyl)-4-methylpiperazine]	10	M (“M” for “medium” (score above 1, up to 4))	M (“M” for “medium” (score above 1, up to 4))	
50 to 300	Cc1cc(C)c(OCCC2CCOCC2)c(Cc2ccccc2C#N)c1 [compound 119, 2-(3,5-dimethyl-2-(2-(tetrahydro-2H-pyran-4-yl)ethoxy)benzyl)benzonitrile]	10	L (“L” for “low” (score above 0, up to 1))	M (“M” for “medium” (score above 1, up to 4))	
300 to 1000	Cc1cc(C)c(OCCN2CCOCC2)c(C(C)c2ccccc2F)c1 (stereo not drawn) [compound 144, 4-(2-(2-(1-(2-fluorophenyl)ethyl)-4,6-dimethylphenoxy)ethyl)morpholine]				
300 to 1000	C=C(c1ccccc1F)c1cc(C)cc(C)c1OCCN1CCOCC1 [compound 145, 4-(2-(2-(1-(2-fluorophenyl)vinyl)-4,6-dimethylphenoxy)ethyl)morpholine]				
300 to 1000	Cc1cc(C)c(OCCN2CCOCC2)c(Cc2ccc(F)cc2F)c1 [compound 146, 4-(2-(2-(2,4-difluorobenzyl)-4,6-dimethylphenoxy)ethyl)morpholine]				
50 to 300	Cc1cc(C)c(OCCN2CCOCC2)c(Cc2cc(F)ccc2F)c1 [compound 147, 4-(2-(2-(2,5-difluorobenzyl)-4,6-dimethylphenoxy)ethyl)morpholine]				
300 to 1000	Cc1cc(C)c(OCCN2CCOCC2)c(Cc2c(Cl)cccc2Cl)c1 [compound 148, 4-(2-(2-(2,6-dichlorobenzyl)-4,6-dimethylphenoxy)ethyl)morpholine]				
300 to 1000	Cc1cc(C)c(OC(C)CN2CCOCC2)c(Cc2c(F)cccc2F)c1 (stereo not drawn) [compound 150, 4-(2-(2-(2,6-difluorobenzyl)-4,6-dimethylphenoxy)propyl)morpholine]				
50 to 300	Cc1ccc(OCCN2CCOCC2)c(Cc2c(F)cccc2F)c1 [compound 151, 4-(2-(2-(2,6-difluorobenzyl)-4-methylphenoxy)ethyl)morpholine]				
50 to 300	Cc1cc(C)c(OCCN2CCOCC2)c(Cc2ccccc2Cl)c1 [compound 152, 4-(2-(2-(2-chlorobenzyl)-4,6-dimethylphenoxy)ethyl)morpholine]				
300 to 1000	Cc1cc(C)c(OCCN2CCOCC2)c(Cc2cc(F)cc(F)c2)c1 [compound 154, 4-(2-(2-(3,5-difluorobenzyl)-4,6-dimethylphenoxy)ethyl)morpholine]				
1000 to 35000	Cc1cc(C)c(OCCN2CCOCC2)cc1Cc1c(F)c(F)c(F)c(F)c1F [compound 155, 4-(2-(2,4-dimethyl-5-((perfluorophenyl)methyl)phenoxy)ethyl)morpholine]				
1000 to 35000	Cc1cc(C)c(OCCN2CCOCC2)c(Cc2cc(F)c(F)cc2F)c1 [compound 156, 4-(2-(2,4-dimethyl-6-(2,4,5-trifluorobenzyl)phenoxy)ethyl)morpholine]				
300 to 1000	Cc1cc(C)c(OCCN2CCOCC2)c(Cc2ccccc2[N+](=O)[O-])c1 [compound 157, 4-(2-(2,4-dimethyl-6-(2-nitrobenzyl)phenoxy)ethyl)morpholine]				
300 to 1000	Cc1ccc(OCCN2CC(C)N(C)C(C)C2)c(Cc2ccccc2)c1 (stereo not drawn) [compound 158, 4-(2-(2-benzyl-4-methylphenoxy)ethyl)-1,2,6-trimethylpiperazine]	30	M (“M” for “medium” (score above 1, up to 4))	M (“M” for “medium” (score above 1, up to 4))	
1000 to 35000	Cc1ccc(OCCN2CCOCC2)c(Cc2ccccc2)c1.Cl [compound 159, 4-(2-(2-benzyl-4-methylphenoxy)ethyl)morpholine hydrochloride]	5	L (“L” for “low” (score above 0, up to 1))	M (“M” for “medium” (score above 1, up to 4))	
1000 to 35000	Cc1ccc(OCCN2CC[S+]([O-])CC2)c(Cc2ccccc2)c1 [compound 160, 4-(2-(2-benzyl-4-methylphenoxy)ethyl)thiomorpholine 1-oxide]				
50 to 300	CCc1cc(C)cc(Cc2ccccc2F)c1OCCN1CCOCC1 [compound 161, 4-(2-(2-ethyl-6-(2-fluorobenzyl)-4-methylphenoxy)ethyl)morpholine]				
< 50	Cc1cc(C)c(CCCN2CCOCC2)c(Oc2ccccc2F)c1 [compound 162, 4-(3-(2-(2-fluorophenoxy)-4,6-dimethylphenyl)propyl)morpholine]				
1000 to 35000	Cc1ccc(O)c(Cc2cc(C)ccc2OCCN2CCN(C)CC2)c1 [compound 163, 4-methyl-2-(5-methyl-2-(2-(4-methylpiperazin-1-yl)ethoxy)benzyl)phenol]				
1000 to 35000	CCOC(=O)c1ccc(Cc2cc(C)cc(C)c2OCCN2CCN(C)CC2)cc1 [compound 164, ethyl 4-(3,5-dimethyl-2-(2-(4-methylpiperazin-1-yl)ethoxy)benzyl)benzoate dihydrochloride]				
1000 to 35000	COC(=O)c1ccc(OCCN2CCN(C)CC2)c(Cc2ccccc2)c1 [compound 165, methyl 3-benzyl-4-(2-(4-methylpiperazin-1-yl)ethoxy)benzoate]				
